Results from patent publication US9751888B2, “Heterocyclic compounds and uses thereof” (Infinity Pharmaceuticals, Inc., priority 2013, dated 2017).

Target: human Class I PI3 kinase α (Homo sapiens (Human), UniProt P42336)
Test: PI3-Kinase Promega ADP-Glo Max assay, α isoform
Format: biochemical
Conditions: 20 nM kinase, 3 mM ATP, 500 uM diC8-PtdInsP; read-out: Promega α PI3K IC50

Sequence of human Class I PI3 kinase α (P42336 whole entry, canonical isoform): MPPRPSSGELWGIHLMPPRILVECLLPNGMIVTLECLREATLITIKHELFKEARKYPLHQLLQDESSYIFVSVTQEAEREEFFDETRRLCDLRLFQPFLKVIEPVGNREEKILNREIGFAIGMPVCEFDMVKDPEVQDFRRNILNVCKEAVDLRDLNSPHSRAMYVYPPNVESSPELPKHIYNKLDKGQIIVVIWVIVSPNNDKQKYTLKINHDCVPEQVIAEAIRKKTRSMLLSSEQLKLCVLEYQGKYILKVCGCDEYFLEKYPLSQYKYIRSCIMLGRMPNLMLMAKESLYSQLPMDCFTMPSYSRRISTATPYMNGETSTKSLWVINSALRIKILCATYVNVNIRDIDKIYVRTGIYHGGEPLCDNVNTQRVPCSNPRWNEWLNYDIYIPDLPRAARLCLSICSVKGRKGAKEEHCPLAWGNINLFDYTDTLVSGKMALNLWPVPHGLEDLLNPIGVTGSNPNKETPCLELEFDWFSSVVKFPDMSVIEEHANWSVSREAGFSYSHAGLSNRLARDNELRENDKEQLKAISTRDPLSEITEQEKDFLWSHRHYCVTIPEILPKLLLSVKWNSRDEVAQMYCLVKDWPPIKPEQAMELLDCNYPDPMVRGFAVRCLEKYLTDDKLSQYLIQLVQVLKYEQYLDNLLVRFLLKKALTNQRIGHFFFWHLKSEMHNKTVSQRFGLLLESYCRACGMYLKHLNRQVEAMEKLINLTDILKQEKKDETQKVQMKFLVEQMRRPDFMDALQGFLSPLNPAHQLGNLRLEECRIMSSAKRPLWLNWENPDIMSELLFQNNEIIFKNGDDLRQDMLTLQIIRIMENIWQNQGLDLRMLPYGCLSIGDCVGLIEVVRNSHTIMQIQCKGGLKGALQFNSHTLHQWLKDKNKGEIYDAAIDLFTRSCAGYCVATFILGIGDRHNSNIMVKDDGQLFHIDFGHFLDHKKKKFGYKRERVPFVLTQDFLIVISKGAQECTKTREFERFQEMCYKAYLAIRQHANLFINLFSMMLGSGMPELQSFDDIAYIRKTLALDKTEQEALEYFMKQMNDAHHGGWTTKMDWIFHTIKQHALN
Sequence of human Class I PI3 kinase α (P27986 whole entry partner, canonical isoform): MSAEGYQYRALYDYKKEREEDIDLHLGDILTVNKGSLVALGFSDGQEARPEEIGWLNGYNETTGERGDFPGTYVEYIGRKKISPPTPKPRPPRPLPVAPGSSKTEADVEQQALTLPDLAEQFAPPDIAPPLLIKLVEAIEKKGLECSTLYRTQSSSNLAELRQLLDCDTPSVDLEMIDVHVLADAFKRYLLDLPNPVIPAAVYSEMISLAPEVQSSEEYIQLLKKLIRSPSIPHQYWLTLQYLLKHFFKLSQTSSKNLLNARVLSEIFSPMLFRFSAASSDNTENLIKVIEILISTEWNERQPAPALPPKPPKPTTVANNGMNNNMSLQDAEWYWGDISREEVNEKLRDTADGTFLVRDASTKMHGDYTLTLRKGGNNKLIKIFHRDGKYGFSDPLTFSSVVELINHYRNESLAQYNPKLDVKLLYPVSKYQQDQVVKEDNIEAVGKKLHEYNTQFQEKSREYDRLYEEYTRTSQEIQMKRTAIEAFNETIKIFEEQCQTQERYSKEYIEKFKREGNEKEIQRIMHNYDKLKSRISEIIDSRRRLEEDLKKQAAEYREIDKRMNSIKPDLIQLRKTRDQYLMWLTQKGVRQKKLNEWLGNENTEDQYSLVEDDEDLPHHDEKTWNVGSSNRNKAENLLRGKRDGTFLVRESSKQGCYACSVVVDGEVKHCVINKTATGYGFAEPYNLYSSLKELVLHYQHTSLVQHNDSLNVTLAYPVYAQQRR

| IC50 [nM] | Compound |
| --- | --- |
| 1000 to 10000 | Cc1cccc2c(=O)n(-c3ccccc3)c([C@H](C)NC(=O)c3c(N)nn4cccnc34)nc12 [Compound 92] |
| 1000 to 10000 | C[C@H](NC(=O)c1c(N)nn2cccnc12)c1cc2cccc(CC(=O)C(C)(C)C)c2c(=O)n1-c1ccccc1 [Compound 94] |
| 1000 to 10000 | C[C@H](NC(=O)c1c(N)nn2cccnc12)c1nc2ccccc2c(=O)n1-c1ccccc1 [Compound 95] |
| 1000 to 10000 | C[C@H](NC(=O)c1c(N)nn2cccnc12)c1oc2ccc(F)cc2c(=O)c1-c1ccccc1 [Compound 96] |

The next lines start with the molecule.

| Compound | IC50 [nM] |
| --- | --- |
| CC(=O)Cc1cccc2nc([C@H](C)NC(=O)c3c(N)nn4cccnc34)n(-c3ccccc3)c(=O)c12 [Compound 89] | 1000 to 10000 |
| C[C@H](NC(=O)c1c(N)nn2cccnc12)c1nc2cccc(N3CCOCC3)c2c(=O)n1-c1ccccc1 [Compound 90] | 1000 to 10000 |
| C[C@H](NC(=O)c1c(N)nn2cccnc12)c1nc2cccc(Cl)c2c(=O)n1-c1ccc(F)c(F)c1 [Compound 91] | 1000 to 10000 |

Target: human Class I PI3 kinase β (Homo sapiens (Human), UniProt P42338)
Sequence (P42338 whole entry, looked up, canonical isoform): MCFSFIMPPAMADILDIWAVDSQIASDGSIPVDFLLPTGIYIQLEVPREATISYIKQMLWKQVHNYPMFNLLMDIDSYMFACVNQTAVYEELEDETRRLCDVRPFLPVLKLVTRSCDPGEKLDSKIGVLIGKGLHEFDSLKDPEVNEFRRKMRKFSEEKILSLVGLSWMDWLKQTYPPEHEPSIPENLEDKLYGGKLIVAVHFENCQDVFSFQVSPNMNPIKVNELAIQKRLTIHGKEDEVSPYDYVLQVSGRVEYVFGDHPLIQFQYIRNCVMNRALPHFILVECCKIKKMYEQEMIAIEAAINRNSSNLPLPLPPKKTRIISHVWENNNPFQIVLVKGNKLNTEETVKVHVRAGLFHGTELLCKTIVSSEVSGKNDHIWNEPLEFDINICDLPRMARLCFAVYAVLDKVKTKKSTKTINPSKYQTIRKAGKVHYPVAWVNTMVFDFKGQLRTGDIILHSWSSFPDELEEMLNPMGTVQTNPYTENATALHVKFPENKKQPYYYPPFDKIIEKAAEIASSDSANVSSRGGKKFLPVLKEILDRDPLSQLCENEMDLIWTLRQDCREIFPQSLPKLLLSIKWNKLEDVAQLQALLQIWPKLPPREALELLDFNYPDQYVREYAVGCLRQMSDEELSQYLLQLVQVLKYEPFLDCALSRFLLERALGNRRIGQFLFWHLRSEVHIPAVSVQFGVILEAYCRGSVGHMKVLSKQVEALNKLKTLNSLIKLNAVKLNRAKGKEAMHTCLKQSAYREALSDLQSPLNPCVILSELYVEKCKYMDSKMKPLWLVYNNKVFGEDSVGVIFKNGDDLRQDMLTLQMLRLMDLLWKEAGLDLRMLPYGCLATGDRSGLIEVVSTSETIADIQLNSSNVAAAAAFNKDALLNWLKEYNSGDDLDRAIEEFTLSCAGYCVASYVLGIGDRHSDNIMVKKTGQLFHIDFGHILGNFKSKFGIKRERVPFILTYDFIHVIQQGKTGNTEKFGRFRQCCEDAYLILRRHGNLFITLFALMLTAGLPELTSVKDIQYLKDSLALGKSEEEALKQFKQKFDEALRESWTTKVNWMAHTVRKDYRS
Sequence (P27986 whole entry partner, looked up, canonical isoform): as the sequence (P27986 whole entry partner, canonical isoform) above
Test: PI3-Kinase Promega ADP-Glo Max assay, β isoform
Format: biochemical
Conditions: 40 nM kinase, 3 mM ATP, 500 uM diC8-PtdInsP; read-out: Promega β PI3K IC50

| IC50 [nM] | Compound |
| --- | --- |
| 1000 to 10000 | Cc1cccc2c(=O)n(-c3ccccc3)c([C@H](C)NC(=O)c3c(N)nn4cccnc34)nc12 [Compound 92] |
| 1000 to 10000 | C[C@H](NC(=O)c1c(N)nn2cccnc12)c1cc2cccc(CC(=O)C(C)(C)C)c2c(=O)n1-c1ccccc1 [Compound 94] |
| 1000 to 10000 | C[C@H](NC(=O)c1c(N)nn2cccnc12)c1nc2ccccc2c(=O)n1-c1ccccc1 [Compound 95] |
| 1000 to 10000 | C[C@H](NC(=O)c1c(N)nn2cccnc12)c1oc2ccc(F)cc2c(=O)c1-c1ccccc1 [Compound 96] |

Continued, molecule first:

| Compound | IC50 [nM] |
| --- | --- |
| CC(=O)Cc1cccc2nc([C@H](C)NC(=O)c3c(N)nn4cccnc34)n(-c3ccccc3)c(=O)c12 [Compound 89] | 1000 to 10000 |
| C[C@H](NC(=O)c1c(N)nn2cccnc12)c1nc2cccc(N3CCOCC3)c2c(=O)n1-c1ccccc1 [Compound 90] | 1000 to 10000 |
| C[C@H](NC(=O)c1c(N)nn2cccnc12)c1nc2cccc(Cl)c2c(=O)n1-c1ccc(F)c(F)c1 [Compound 91] | 1000 to 10000 |

Target: human Class I PI3 kinase δ (Homo sapiens (Human), UniProt O00329)
Test: PI3-Kinase Promega ADP-Glo Max assay, δ isoform
Format: biochemical
Conditions: 20 nM kinase, 3 mM ATP, 500 uM diC8-PtdInsP; read-out: Promega δ PI3K IC50

| IC50 [nM] | Compound |
| --- | --- |
| 1000 to 10000 | Cc1cccc2c(=O)n(-c3ccccc3)c([C@H](C)NC(=O)c3c(N)nn4cccnc34)nc12 [Compound 92] |
| 1000 to 10000 | C[C@H](NC(=O)c1c(N)nn2cccnc12)c1cc2cccc(CC(=O)C(C)(C)C)c2c(=O)n1-c1ccccc1 [Compound 94] |
| 500 to 1000 | C[C@H](NC(=O)c1c(N)nn2cccnc12)c1nc2ccccc2c(=O)n1-c1ccccc1 [Compound 95] |
| 1000 to 10000 | C[C@H](NC(=O)c1c(N)nn2cccnc12)c1oc2ccc(F)cc2c(=O)c1-c1ccccc1 [Compound 96] |

The remaining lines, values behind:

| Compound | IC50 [nM] |
| --- | --- |
| CC(=O)Cc1cccc2nc([C@H](C)NC(=O)c3c(N)nn4cccnc34)n(-c3ccccc3)c(=O)c12 [Compound 89] | 500 to 1000 |
| C[C@H](NC(=O)c1c(N)nn2cccnc12)c1nc2cccc(N3CCOCC3)c2c(=O)n1-c1ccccc1 [Compound 90] | 1000 to 10000 |
| C[C@H](NC(=O)c1c(N)nn2cccnc12)c1nc2cccc(Cl)c2c(=O)n1-c1ccc(F)c(F)c1 [Compound 91] | 1000 to 10000 |

Target: human Class I PI3 kinase γ (Homo sapiens (Human), UniProt P48736)
Sequence (P48736 whole entry, canonical isoform): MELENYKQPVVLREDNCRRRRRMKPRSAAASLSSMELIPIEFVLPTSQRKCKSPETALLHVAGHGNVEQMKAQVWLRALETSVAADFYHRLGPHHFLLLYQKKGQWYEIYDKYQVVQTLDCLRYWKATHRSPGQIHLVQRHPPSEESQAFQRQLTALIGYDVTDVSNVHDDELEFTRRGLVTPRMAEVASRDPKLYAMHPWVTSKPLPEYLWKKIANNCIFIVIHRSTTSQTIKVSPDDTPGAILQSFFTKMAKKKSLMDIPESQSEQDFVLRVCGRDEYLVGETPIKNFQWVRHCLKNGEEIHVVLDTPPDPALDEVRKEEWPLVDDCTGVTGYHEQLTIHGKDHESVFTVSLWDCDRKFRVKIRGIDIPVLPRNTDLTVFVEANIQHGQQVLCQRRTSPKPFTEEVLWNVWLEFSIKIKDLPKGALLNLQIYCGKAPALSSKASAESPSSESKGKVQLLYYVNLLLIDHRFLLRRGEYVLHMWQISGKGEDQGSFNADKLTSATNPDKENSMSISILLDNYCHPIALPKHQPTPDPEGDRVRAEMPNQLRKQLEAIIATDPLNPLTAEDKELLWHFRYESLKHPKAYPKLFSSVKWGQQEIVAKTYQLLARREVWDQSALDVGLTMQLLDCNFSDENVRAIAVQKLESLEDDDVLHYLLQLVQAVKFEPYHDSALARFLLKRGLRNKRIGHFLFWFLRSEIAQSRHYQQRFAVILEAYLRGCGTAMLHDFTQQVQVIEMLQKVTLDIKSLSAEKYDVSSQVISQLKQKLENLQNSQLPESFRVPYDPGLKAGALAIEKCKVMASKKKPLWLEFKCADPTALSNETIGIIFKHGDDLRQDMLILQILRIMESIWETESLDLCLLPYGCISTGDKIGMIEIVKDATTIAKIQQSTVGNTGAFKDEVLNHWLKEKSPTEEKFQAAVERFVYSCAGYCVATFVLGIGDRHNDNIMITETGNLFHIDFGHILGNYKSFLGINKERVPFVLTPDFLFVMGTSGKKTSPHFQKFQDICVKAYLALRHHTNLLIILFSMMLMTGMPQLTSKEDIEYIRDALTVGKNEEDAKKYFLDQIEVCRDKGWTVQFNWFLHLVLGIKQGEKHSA
Test: PI3-Kinase Promega ADP-Glo Max assay, γ isoform
Format: biochemical
Conditions: 40 nM kinase, 3 mM ATP, 500 uM diC8-PtdInsP; read-out: Promega γ PI3K IC50
Description: Promega ADP-Glo Max assay kit (Cat. No. V7002) was utilized to determine IC50 values for α, β, δ and γ isoforms of human Class I PI3 kinases (Millipore). Samples of kinase (20 nM α or δ, 40 nM β or γ isoform) were incubated with compound for 15 minutes at room temperature in reaction buffer (15 mM HEPES pH 7.4, 20 mM NaCl, 1 mM EGTA, 0.02% Tween 20, 10 mM MgCl2, 0.2 mg/mL bovine-γ-globulins) followed by addition of ATP/diC8-PtdInsP mixture to give final concentrations of 3 mM ATP and 500 uM diC8-PtdInsP. Reactions were incubated at room temperature for 2 hours followed by addition of 25 uL of stop solution. After a 40-minute incubation at room temperature, 50 uL of Promega detection mix was added followed by incubation for 1 hour at room temperature. Plates were then read on Envision plate reader in luminescence mode. Data was converted to % inhibition using the following equation below:
[formula] where S is the sample luminescence, Pos is a positive control without added PI3K, Neg is the negative control without added compound. Data was then plotted as % inhibition vs compound concentration.
Certain compounds provided herein were tested in PI3-Kinase Promega Assay using procedures as described above to determine IC50 values for α, β, δ and/or γ isoforms.

| IC50 [nM] | Compound |
| --- | --- |
| 1000 to 10000 | Cc1cccc2c(=O)n(-c3ccccc3)c([C@H](C)NC(=O)c3c(N)nn4cccnc34)nc12 [Compound 92] |
| 1000 to 10000 | C[C@H](NC(=O)c1c(N)nn2cccnc12)c1cc2cccc(CC(=O)C(C)(C)C)c2c(=O)n1-c1ccccc1 [Compound 94] |
| 100 to 500 | C[C@H](NC(=O)c1c(N)nn2cccnc12)c1nc2ccccc2c(=O)n1-c1ccccc1 [Compound 95] |
| 1000 to 10000 | C[C@H](NC(=O)c1c(N)nn2cccnc12)c1oc2ccc(F)cc2c(=O)c1-c1ccccc1 [Compound 96] |

More lines, now with the values behind:

| Compound | IC50 [nM] |
| --- | --- |
| CC(=O)Cc1cccc2nc([C@H](C)NC(=O)c3c(N)nn4cccnc34)n(-c3ccccc3)c(=O)c12 [Compound 89] | 500 to 1000 |
| C[C@H](NC(=O)c1c(N)nn2cccnc12)c1nc2cccc(N3CCOCC3)c2c(=O)n1-c1ccccc1 [Compound 90] | 1000 to 10000 |
| C[C@H](NC(=O)c1c(N)nn2cccnc12)c1nc2cccc(Cl)c2c(=O)n1-c1ccc(F)c(F)c1 [Compound 91] | 500 to 1000 |

Target: p110 δ (RAJI cells) (Homo sapiens (Human), UniProt O00329)
Test: PI3K-δ selective cellular assay: phospho-AKT in anti-human IgM stimulated RAJI cells
Format: cell-based
Conditions: serum-starved RAJI cells stimulated with anti-human IgM
Description: A compound's ability in selectively inhibiting PI3K-δ can be assessed using RAJI cells, i.e., B lymphocyte cells derived from lymphoma patients. Briefly, serum-starved RAJI cells are stimulated with anti-human IgM, thereby causing signaling through the B-cell receptors, as described in, for example, He et al., Leukemia Research (2009) 33: 798-802. B-cell receptor signaling is important for the activation, differentiation, and survival of B cells and certain B-cell derived cancers. Reduction of phospho-AKT is indicative of compounds that may inhibit B-cell proliferation and function in certain diseases. […] Certain compounds provided herein were tested in RAJI cell model using procedures as described above.

| IC50 [nM] | Compound |
| --- | --- |
| 100 to 500 | Cc1cccc2c(=O)n(-c3ccccc3)c([C@H](C)NC(=O)c3c(N)nn4cccnc34)nc12 [Compound 92] |
| 500 to 1000 | C[C@H](NC(=O)c1c(N)nn2cccnc12)c1cc2cccc(CC(=O)C(C)(C)C)c2c(=O)n1-c1ccccc1 [Compound 94] |
| 10 to 100 | C[C@H](NC(=O)c1c(N)nn2cccnc12)c1nc2ccccc2c(=O)n1-c1ccccc1 [Compound 95] |
| 100 to 500 | C[C@H](NC(=O)c1c(N)nn2cccnc12)c1oc2ccc(F)cc2c(=O)c1-c1ccccc1 [Compound 96] |

Second part, the molecule before the results:

| Compound | IC50 [nM] |
| --- | --- |
| CC(=O)Cc1cccc2nc([C@H](C)NC(=O)c3c(N)nn4cccnc34)n(-c3ccccc3)c(=O)c12 [Compound 89] | 100 to 500 |
| C[C@H](NC(=O)c1c(N)nn2cccnc12)c1nc2cccc(N3CCOCC3)c2c(=O)n1-c1ccccc1 [Compound 90] | 1000 to 10000 |
| C[C@H](NC(=O)c1c(N)nn2cccnc12)c1nc2cccc(Cl)c2c(=O)n1-c1ccc(F)c(F)c1 [Compound 91] | 100 to 500 |

Target: p110 γ (RAW264.7 cells) (Mus musculus (Mouse), UniProt Q9JHG7)
Sequence (Q9JHG7 whole entry): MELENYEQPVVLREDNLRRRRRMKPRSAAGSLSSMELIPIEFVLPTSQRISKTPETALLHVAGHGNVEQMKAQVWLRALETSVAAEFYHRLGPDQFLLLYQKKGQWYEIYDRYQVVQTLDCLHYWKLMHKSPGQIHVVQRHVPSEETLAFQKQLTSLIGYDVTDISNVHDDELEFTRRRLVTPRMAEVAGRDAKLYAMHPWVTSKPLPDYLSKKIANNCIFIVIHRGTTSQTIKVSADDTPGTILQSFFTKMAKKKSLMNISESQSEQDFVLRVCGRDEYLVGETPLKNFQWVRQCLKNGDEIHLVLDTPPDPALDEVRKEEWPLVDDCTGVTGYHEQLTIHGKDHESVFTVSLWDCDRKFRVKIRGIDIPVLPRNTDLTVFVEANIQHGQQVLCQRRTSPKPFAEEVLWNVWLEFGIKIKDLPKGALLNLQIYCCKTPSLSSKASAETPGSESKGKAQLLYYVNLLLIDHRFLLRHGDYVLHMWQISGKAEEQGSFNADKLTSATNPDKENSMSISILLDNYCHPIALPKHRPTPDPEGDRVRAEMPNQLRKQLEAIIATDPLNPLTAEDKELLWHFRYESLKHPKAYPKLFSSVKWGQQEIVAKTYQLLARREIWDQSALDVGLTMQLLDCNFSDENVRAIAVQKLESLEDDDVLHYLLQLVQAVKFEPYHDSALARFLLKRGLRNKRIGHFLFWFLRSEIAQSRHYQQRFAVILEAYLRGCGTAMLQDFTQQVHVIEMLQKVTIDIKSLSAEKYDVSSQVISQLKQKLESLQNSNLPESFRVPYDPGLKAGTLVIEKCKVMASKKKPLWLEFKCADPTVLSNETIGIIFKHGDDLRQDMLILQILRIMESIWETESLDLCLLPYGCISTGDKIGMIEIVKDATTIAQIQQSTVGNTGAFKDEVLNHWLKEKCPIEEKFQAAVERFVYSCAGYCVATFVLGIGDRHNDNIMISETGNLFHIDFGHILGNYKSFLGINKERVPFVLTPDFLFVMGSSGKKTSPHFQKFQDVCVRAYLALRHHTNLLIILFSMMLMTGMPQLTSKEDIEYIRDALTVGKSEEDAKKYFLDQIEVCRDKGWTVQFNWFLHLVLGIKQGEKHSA
Test: PI3K-γ selective cellular assay: phospho-AKT in C5a stimulated RAW264.7 macrophages
Format: cell-based
Conditions: serum-starved RAW264.7 cells stimulated with C5a
Description: Certain compounds provided herein were tested in RAW 264.7 cell model using procedures as described above.

| IC50 [nM] | Compound |
| --- | --- |
| 100 to 500 | Cc1cccc2c(=O)n(-c3ccccc3)c([C@H](C)NC(=O)c3c(N)nn4cccnc34)nc12 [Compound 92] |
| 100 to 500 | C[C@H](NC(=O)c1c(N)nn2cccnc12)c1cc2cccc(CC(=O)C(C)(C)C)c2c(=O)n1-c1ccccc1 [Compound 94] |
| 10 to 100 | C[C@H](NC(=O)c1c(N)nn2cccnc12)c1nc2ccccc2c(=O)n1-c1ccccc1 [Compound 95] |
| 100 to 500 | C[C@H](NC(=O)c1c(N)nn2cccnc12)c1oc2ccc(F)cc2c(=O)c1-c1ccccc1 [Compound 96] |

More lines, now with the values behind:

| Compound | IC50 [nM] |
| --- | --- |
| CC(=O)Cc1cccc2nc([C@H](C)NC(=O)c3c(N)nn4cccnc34)n(-c3ccccc3)c(=O)c12 [Compound 89] | 10 to 100 |
| C[C@H](NC(=O)c1c(N)nn2cccnc12)c1nc2cccc(N3CCOCC3)c2c(=O)n1-c1ccccc1 [Compound 90] | 500 to 1000 |
| C[C@H](NC(=O)c1c(N)nn2cccnc12)c1nc2cccc(Cl)c2c(=O)n1-c1ccc(F)c(F)c1 [Compound 91] | 10 to 100 |
